{"source": "patent US9221876B2", "about": "“Methods for treating kidney disease with fragments of ApoB-100” (Cedars-Sinai Medical Center, priority 2011, dated 2015)", "type_in_all_cases": "in vivo, apoE (−/−) male mice", "key": {"[1]": {"test_system": "MCP-1", "assay": "MCP-1 mRNA expression in kidney, quantitative PCR", "details": "p210/cBSA/Alum+AngII vs cBSA/Alum+AngII and PBS+AngII; N=8 each; p<0.05", "protocol": "(§1) The inventors assessed the effect of p210 immunization on AngII-induced renal inflammatory responses in apoE (−/−) male mice. For the experiments described herein, native p210 peptide (KTTKQ SFDLS VKAQY KKNKH) was conjugated to cationic bovine serum albumin (cBSA) as carrier. Alum was used as an adjuvant. At 7, 10, and 12 weeks of age, male apoE (−/−) mice were subcutaneously injected with 100 μg of p210/cBSA/Alum. As immunization controls, 100 μg of cBSA/Alum, or PBS were injected. At 10 weeks of age after first immunization booster, 1000 ng/Kg/min of AngII was delivered by subcutaneously implanted osmotic pump for 4 weeks (FIG. 1A).\n(§2) At euthanasia, kidney was harvested for quantitative PCR analysis or histological analysis. Data are presented as mean±SEM. Data were analyzed by ANOVA following post-hoc test for multiple group comparison."}, "[2]": {"test_system": "PAI-1", "assay": "PAI-1 mRNA expression in kidney", "details": "p210/cBSA/Alum+AngII vs cBSA/Alum+AngII and PBS+AngII; N=5 each; p<0.05", "excerpt": "(§3) (Left): PAI-1. N=5 each, (Right): TGF-β. N=9 each. *p<0.05 vs. p210. p210: immunized with p210/cBSA/Alum+AngII; cBSA: immunized with cBSA/Alum+AngII; PBS: immunized with PBS+AngII.\nas §1, §2\n(§4) These anti-hypertensive and renal protective effects are associated with significant reduction of inflammatory cytokines and chemokine gene expression, ROS production mediated by NADPH oxidase, and profibrotic gene expression in kidney. […]"}, "[3]": {"test_system": "TGF-β", "assay": "TGF-β mRNA expression in kidney", "details": "p210/cBSA/Alum+AngII vs cBSA/Alum+AngII and PBS+AngII; N=9 each; p<0.05", "excerpt": "as §3, §1, §2, §4"}, "[4]": {"test_system": "NOX1, a component of NADPH oxidase", "assay": "NOX1 expression in kidney", "details": "p210/cBSA/Alum+AngII vs cBSA/Alum+AngII and PBS+AngII; N=8 each; p<0.05", "excerpt": "as §3, §1, §2, §4"}, "[5]": {"test_system": "glomerular ROS production", "assay": "Glomerular ROS (superoxide) production, in situ dihydroethidium (DHE) labeling of frozen kidney sections", "details": "p210/cBSA/Alum+AngII vs cBSA/Alum+AngII and PBS+AngII; N=4 each; p<0.05", "excerpt": "(A) Representative figure of in situ DHE labeling. (B) Densitometric analysis of DHE fluorescence. *p<0.05 vs. p210. N=4 each. p210: immunized with p210/cBSA/Alum+AngII; cBSA: immunized with cBSA/Alum+AngII; PBS: immunized with PBS+AngII.\nas §1\nSuperoxide production in kidney was measured by in situ dihydroethidium (DHE) methods with freshly cut frozen sections."}, "[6]": {"test_system": "Angiotensin II type 1 receptor (AT1R)", "assay": "AT1R expression in aorta, Western blot with densitometric analysis, after p210 immunization and AngII infusion", "details": "100 μg p210/cBSA/Alum s.c. at 7, 10, 12 weeks of age; AngII 1000 ng/Kg/min by osmotic pump for 4 weeks; vs cBSA/Alum and PBS; N=6 each", "excerpt": "N=6 in each group. p210: immunized with p210/cBSA/Alum+AngII; cBSA: immunized with cBSA/Alum+AngII; PBS: immunized with PBS+AngII.\nas §1"}, "[7]": {"test_system": "IL-6", "assay": "IL-6 mRNA expression in kidney, quantitative PCR", "details": "p210/cBSA/Alum+AngII vs cBSA/Alum+AngII and PBS+AngII; N=8 each; p<0.05", "protocol": "as §1, §2"}, "[8]": {"test_system": "TNF-α", "assay": "TNF-α mRNA expression in kidney, quantitative PCR", "details": "p210/cBSA/Alum+AngII vs cBSA/Alum+AngII and PBS+AngII; N=10 each; p<0.05", "protocol": "as §1, §2"}, "[9]": {"assay": "Serum creatinine level (indicator of renal function), creatinine assay kit, AngII-induced renal damage", "protocol": "as §1\nSerum creatinine (Cr.) (an indicator of renal function) level at 14 weeks of age was assessed by commercially available creatinine assay kit following the manufacture's instruction. […] N: p210=12, cBSA=11, PBS=9."}}, "note": "Entries after “also recorded” stand apart in the source; their conditions may differ. No end group written: not given here.", "data": [{"substance": "KTTKQ SFDLS VKAQY KKNKH (KTTKQSFDLSVKAQYKKNKH; also: conjugated to cationic BSA carrier) [Peptide P210, amino acids 3136-3155 of human ApoB-100; tested conjugated to cationic bovine serum albumin (cBSA) as carrier, Alum as adjuvant]", "values": [{"measurement": "MCP-1 mRNA expression in kidney", "setting": "[1]", "result": "down-regulated; also recorded: significantly reduced"}, {"measurement": "PAI-1 mRNA expression in kidney", "setting": "[2]", "result": "significantly downregulated; also recorded: significantly reduced"}, {"measurement": "TGF-β mRNA expression in kidney", "setting": "[3]", "result": "significantly downregulated; also recorded: significantly reduced"}, {"measurement": "NOX1 expression in kidney", "setting": "[4]", "result": "significantly reduced"}, {"measurement": "glomerular ROS production (DHE fluorescence)", "setting": "[5]", "result": "significantly reduced"}, {"measurement": "expression of Angiotensin II type 1 receptor (AT1R) in aorta", "setting": "[6]", "result": "significantly decreased"}, {"measurement": "IL-6 mRNA expression in kidney", "setting": "[7]", "result": "down-regulated; also recorded: significantly reduced"}, {"measurement": "TNF-α mRNA expression in kidney", "setting": "[8]", "result": "down-regulated; also recorded: significantly reduced"}, {"measurement": "Serum Cr.", "setting": "[9]; at 14 weeks of age, 100 μg p210/cBSA/Alum s.c. at 7, 10, 12 weeks, AngII infusion 4 weeks, mean±SEM, N p210=12", "result": "0.6 ± 0.1", "unit": "mg/dL"}, {"measurement": "Serum creatinine level vs cBSA and PBS groups", "setting": "[9]; at 14 weeks of age, p<0.05", "result": "significantly lower"}, {"measurement": "AngII-induced renal damage", "setting": "[9]; p210 immunization, AngII infusion 4 weeks", "result": "protected against AngII-induced renal damage; also recorded: significantly attenuated"}]}]}
